# Measured values: US8362050B2, “Compounds and methods for modulating G protein-coupled receptors” (IRM LLC, priority 2008, dated 2013)
# Like-named read-outs stand apart in the source and are kept apart here.
# Biological target: T1, Human GPR120 (Homo sapiens, UniProt Q5NUL3)
# T1 construct: Ga16 (promiscuous G protein) fusion partner; expressed in transfected cells
# T1 sequence (Q5NUL3 with tags, fused parts or gaps): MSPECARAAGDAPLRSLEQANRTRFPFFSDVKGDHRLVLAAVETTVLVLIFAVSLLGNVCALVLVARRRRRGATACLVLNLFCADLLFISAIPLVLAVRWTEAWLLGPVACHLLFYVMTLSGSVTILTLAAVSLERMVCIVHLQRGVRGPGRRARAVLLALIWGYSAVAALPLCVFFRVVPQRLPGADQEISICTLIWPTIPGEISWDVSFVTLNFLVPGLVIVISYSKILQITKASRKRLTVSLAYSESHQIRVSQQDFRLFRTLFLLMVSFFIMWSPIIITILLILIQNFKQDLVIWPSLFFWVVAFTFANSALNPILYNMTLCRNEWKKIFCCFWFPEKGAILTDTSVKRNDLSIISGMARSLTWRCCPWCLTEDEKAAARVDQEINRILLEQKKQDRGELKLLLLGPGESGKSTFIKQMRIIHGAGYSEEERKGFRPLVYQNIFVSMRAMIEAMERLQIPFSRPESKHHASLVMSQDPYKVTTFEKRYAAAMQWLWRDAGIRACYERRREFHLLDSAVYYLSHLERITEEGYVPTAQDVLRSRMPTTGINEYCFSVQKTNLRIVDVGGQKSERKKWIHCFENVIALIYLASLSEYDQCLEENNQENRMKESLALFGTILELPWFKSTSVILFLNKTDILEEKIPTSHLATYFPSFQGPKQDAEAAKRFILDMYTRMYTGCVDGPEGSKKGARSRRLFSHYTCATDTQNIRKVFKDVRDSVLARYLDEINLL
# Test: FLIPR assay: agonist-induced calcium mobilization in HEK293-GPR120-Ga16 cells
# Assay type: cell-based
# Conditions: for EC50: GPR120 activation, calcium mobilization, HEK293-GPR120-Ga16 cells; for Emax: % enhancement of the test compound relative to a known compound, read-out: % Efficiency
# Method: Human GPR120 stable cell-line was generated in HEK293 cells. GPR120 (Accession number BC101175) is fused to a promiscuous G protein, Ga16. The expression plasmid is transfected into HEK293 cells using Fugene6 following manufacturer's instruction. Stable cell-lines are generated following drug selection.
# FLIPR (Fluorimetric Imaging Plate Reader, Molecular Devices) assays are performed to measure agonist-induced calcium mobilization in the GPR120-expressing cells. One day before the FLIPR assay, HEK293-GPR120-Ga16 cells are seeded into poly-D-lysine coated black-wall-clear bottom 384 well plates (Falcon) at 25,000 cells per well in 40 μl DMEM supplemented with 1% of FBS. The cells are incubated overnight at 37° C. in a humidified incubator. The medium is aspirated on the day of the FLIPR assay. The cells are incubated with 50 μl/well of the assay buffer (HBSS, 20 mM HEPES, 2.5 mM probenecid, pH7.4) containing Fluo-4 NM dye (Invitrogen cat# F36205) at 37° C. for 45 minutes, and then equilibrated at room temperature for 30 minutes. Compounds are dissolved in DMSO and diluted to desired concentrations with assay buffer. Fluorescent output is measured immediately following compound addition (12.5 μl/well) on the FLIPR machine.
# An EC50 value was calculated using the change of fluorescent intensity from the reaction initiation. […] In some examples, compounds provided herein have EC50 values from 0.1 μM to 5 μM, while in other examples from 0.5 μM to 5 μM.
# The EC50 value in those experiments is given as that concentration of the test compound in question that provoke a response halfway between the baseline and maximum responses. In certain examples compounds of Formula (I) have EC50 values from 0.001 μM to 5 μM. In other examples, compounds of Formula (I) have EC50 values from 0.001 μM to 4 μM. In other examples, compounds of Formula (I) have EC50 values from 0.001 μM to 3 μM. In other examples, compounds of Formula (I) have EC50 values from 0.001 μM to 2 μM. In other examples, compounds of Formula (I) have EC50 values from 0.001 μM to 1 μM. In other examples, compounds of Formula (I) have EC50 values from 0.001 μM to 0.5 μM. […] In other examples, compounds of Formula (I) have EC50 values from 0.001 μM to 0.1 μM.
# The % efficiency in those experiments is given as that % enhancement of the test compound in question relative to a known compound. In certain examples compounds of Formula (I) have a % efficiency values from 50% to 150%. In other examples, compounds of Formula (I) have a % efficiency values from 55% to 150%. In other examples, compounds of Formula (I) have a % efficiency values from 60% to 150%. In other examples, compounds of Formula (I) have a % efficiency values from 65% to 150%. In other examples, compounds of Formula (I) have a % efficiency values from 70% to 150%. In other examples, compounds of Formula (I) have a % efficiency values from 75% to 150%. In other examples, compounds of Formula (I) have a % efficiency values from 80% to 150%. In other examples, compounds of Formula (I) have a % efficiency values from 85% to 150%. In other examples, compounds of Formula (I) have a % efficiency values from 90% to 150%. In other examples, compounds of Formula (I) have a % efficiency values from 95% to 150%. In other examples, compounds of Formula (I) have a % efficiency values from 100% to 150%.
Structure (SMILES),EC50 (read-out: EC50 Range) [nM],Emax [%],EC50 (read-out: EC50) [nM]
"CCn1c(-c2ccccc2N)cs/c1=N\c1ccc(C(=O)O)cc1 [Compound 43, (Z)-4-(4-(2-aminophenyl)-3-ethylthiazol-2(3H)-ylideneamino)benzoic acid]",1 to 100,–,–
"CCn1c(-c2ccccc2[N+](=O)[O-])cs/c1=N\c1ccc(C(=O)O)cc1 [Compound 44, (Z)-4-(3-ethyl-4-(2-nitrophenyl)thiazol-2(3H)-ylideneamino)benzoic acid]",500 to 1000,75.2,604
"CCn1c(-c2ccccc2NC)cs/c1=N\c1ccc(C(=O)O)cc1 [Compound 45, (Z)-4-(3-ethyl-4-(2-(methylamino)phenyl)thiazol-2(3H)-ylideneamino)benzoic acid]",500 to 1000,87.9,526
"CCn1c(-c2ccccc2N(C)C)cs/c1=N\c1ccc(C(=O)O)cc1 [Compound 46, (Z)-4-(4-(2-(dimethylamino)phenyl)-3-ethylthiazol-2(3H)-ylideneamino)benzoic acid]",500 to 1000,–,–
"CCn1c(-c2cccc(Br)c2)cs/c1=N\c1ccc(C(=O)O)cc1 [Compound 47, (Z)-4-(4-(3-bromophenyl)-3-ethylthiazol-2(3H)-ylideneamino)benzoic acid]",100 to 250,–,–
"CCn1c(-c2ccccc2O)cs/c1=N\c1ccc(C(=O)O)cc1 [Compound 48, (Z)-4-(3-ethyl-4-(2-hydroxyphenyl)thiazol-2(3H)-ylideneamino)benzoic acid]",100 to 250,–,–
"CCn1c(-c2cccc(C#N)c2)cs/c1=N\c1ccc(C(=O)O)cc1 [Compound 49, (Z)-4-(4-(3-cyanophenyl)-3-ethylthiazol-2(3H)-ylideneamino)benzoic acid]",250 to 500,–,–
"CCn1c(-c2cc(Br)ccc2O)cs/c1=N\c1ccc(C(=O)O)cc1 [Compound 50, (Z)-4-(4-(5-bromo-2-hydroxyphenyl)-3-ethylthiazol-2(3H)-ylideneamino)benzoic acid]",100 to 250,–,–
"COc1ccc(-c2noc(-c3cccc(C(=O)O)c3)n2)cc1 [Compound 51, 3-[3-(4-Methoxyphenyl)-1,2,4-oxadiazol-5-yl]benzoic acid]",100 to 250,55,184
"COc1ccc(-c2noc(-c3ccc(C(=O)O)cc3)n2)cc1 [Compound 52, 4-(3-(4-methoxyphenyl)-1,2,4-oxadiazol-5-yl)benzoic acid]",1000 to 5000,–,–
"COc1cccc(-c2noc(-c3cccc(C(=O)O)c3)n2)c1 [Compound 53, 3-(3-(3-methoxyphenyl)-1,2,4-oxadiazol-5-yl)benzoic acid]",500 to 1000,–,–

# More lines, now with the values ahead:
EC50 (read-out: EC50 Range) [nM],Emax [%],EC50 (read-out: EC50) [nM],Structure (SMILES)
1000 to 5000,68.9,1400,"COc1ccc(-n2cc(-c3cccc(C(=O)O)c3)nn2)cc1 [Compound 54, 3-(1-(4-methoxyphenyl)-1H-1,2,3-triazol-4-yl)benzoic acid]"
1000 to 5000,–,–,"COc1ccc(-c2cn(-c3cccc(C(=O)O)c3)nn2)cc1 [Compound 55, 3-(4-(4-methoxyphenyl)-1H-1,2,3-triazol-1-yl)benzoic acid]"
250 to 500,60.4,290,"COc1ccc(-c2nc(-c3cccc(C(=O)O)c3)no2)cc1 [Compound 56, 3-(5-(4-methoxyphenyl)-1,2,4-oxadiazol-3-yl)-benzoic acid]"
1000 to 5000,53.7,1340,"Cc1ccc(-c2cn(-c3cccc(C(=O)O)c3)nn2)cc1 [Compound 57, 3-(4-p-tolyl-1H-1,2,3-triazol-1-yl)benzoic acid]"
1000 to 5000,–,–,"O=C(O)c1cccc(-n2cc(-c3ccc(C(F)(F)F)cc3)nn2)c1 [Compound 58, 3-(4-(4-(trifluoromethyl)phenyl)-1H-1,2,3-triazol-1-yl)benzoic acid]"
1000 to 5000,–,–,"O=C(O)c1cccc(-n2cc(-c3ccc(Cl)cc3)nn2)c1 [Compound 59, 3-(4-(4-chlorophenyl)-1H-1,2,3-triazol-1-yl)benzoic acid]"
1000 to 5000,–,–,"O=C(O)c1cccc(-n2cc(-c3ccccc3F)nn2)c1 [Compound 60, 3-(4-(2-fluorophenyl)-1H-1,2,3-triazol-1-yl)benzoic acid]"
500 to 1000,–,–,"CCc1ccc(-c2cn(-c3cccc(C(=O)O)c3)nn2)cc1 [Compound 61, 3-(4-(4-ethylphenyl)-1H-1,2,3-triazol-1-yl)benzoic acid]"
250 to 500,–,–,"O=C(O)c1cccc(-n2cc(-c3ccc(F)cc3F)nn2)c1 [Compound 62, 3-(4-(2,4-difluorophenyl)-1H-1,2,3-triazol-1-yl)benzoic acid]"
1000 to 5000,–,–,"O=C(O)c1cccc(-n2cc(-c3ccc(Br)cc3)nn2)c1 [Compound 63, 3-(4-(4-bromophenyl)-1H-1,2,3-triazol-1-yl)benzoic acid]"
500 to 1000,69,878,"CC(C)c1ccc(-n2cc(-c3cccc(C(=O)O)c3)nn2)cc1 [Compound 64, 3-(1-(4-isopropylphenyl)-1H-1,2,3-triazol-4-yl)benzoic acid]"
1000 to 5000,–,–,"CCc1ccc(-c2cn(-c3cc(OC)cc(C(=O)O)c3)nn2)cc1 [Compound 65, 3-(4-(4-ethylphenyl)-1H-1,2,3-triazol-1-yl)-5-methoxybenzoic acid]"
500 to 1000,–,–,"CCc1ccc(-c2cn(-c3cc(F)cc(C(=O)O)c3)nn2)cc1 [Compound 66, 3-(4-(4-ethylphenyl)-1H-1,2,3-triazol-1-yl)-5-fluorobenzoic acid]"
100 to 250,–,–,"Cc1ccc(-n2cc(-c3cccc(C(=O)O)c3)nn2)c(F)c1 [Compound 67, 3-(1-(2-fluoro-4-methylphenyl)-1H-1,2,3-triazol-4-yl)benzoic acid]"
> 5000,–,–,CCc1ccc(-c2cn(-c3ccc(Cl)c(C(=O)O)c3)nn2)cc1 [Compound 68]
1000 to 5000,–,–,"CCc1ccc(-c2cn(-c3ccc(F)c(C(=O)O)c3)nn2)cc1 [Compound 69, 5-(4-(4-ethylphenyl)-1H-1,2,3-triazol-1-yl)-2-fluorobenzoic acid]"
1000 to 5000,–,–,"CCc1ccc(-c2cn(-c3cc(C(=O)O)ccc3F)nn2)cc1 [Compound 70, 3-(4-(4-ethylphenyl)-1H-1,2,3-triazol-1-yl)-4-fluorobenzoic acid]"
